# Experimental data: ChEMBL document CHEMBL5260825, “Chemical Constituents of Bryophytes: Structures and Biological Activity” (J Nat Prod, 2018)
# Several values for one entry are separate records, joined by “and”; a condition that tells them apart may be missing. Equal values may be shown once.
# Key:
# KB = assay: Antiproliferative activity against human KB cells assessed as cell growth inhibition; format: functional, cell-based
# P388 = assay: Antiproliferative activity against mouse P388 cells assessed as cell growth inhibition; format: functional, cell-based
# [1] = Cytotoxicity against mouse 3T3 cells assessed as reduction in cell viability; format: toxicity, cell-based; details: NIH3T3 cells
# NCI-H460 = assay: Antiproliferative activity against human NCI-H460 cells assessed as cell growth inhibition; format: functional
# DU-145 = assay: Antiproliferative activity against human DU-145 cells assessed as cell growth inhibition; format: functional
# MCF7 = assay: Antiproliferative activity against human MCF7 cells assessed as cell growth inhibition; format: functional, cell-based
# M14 = assay: Antiproliferative activity against human M14 cells assessed as cell growth inhibition; format: functional
# HT-29 = assay: Antiproliferative activity against human HT-29 cells assessed as cell growth inhibition; format: functional, cell-based
# K562 = assay: Antiproliferative activity against human K562 cells assessed as cell growth inhibition; format: functional
# U-937 = assay: Antiproliferative activity against human U-937 cells assessed as cell growth inhibition; format: functional
# HCT-116 = assay: Antiproliferative activity against human HCT-116 cells assessed as cell growth inhibition; format: functional
# A549 = assay: Antiproliferative activity against human A549 cells assessed as cell growth inhibition; format: functional
# Caenorhabditis elegans = assay: Nematocidal activity against Caenorhabditis elegans; format: functional, organism-based
# Leishmania amazonensis = assay: Antileishmanial activity against Leishmania amazonensis axenic amastigotes assessed as inhibition of parasite growth; format: functional, organism-based
# [2] = system: Trypanosoma brucei brucei; assay: […] activity against Trypanosoma brucei brucei GUTat 3.1 assessed as inhibition of parasite growth measured after 72 hrs by alamar blue assay; format: functional, organism-based; details: GUTat 3.1, time 72 hrs
# Phytophthora infestans = assay: Antifungal activity against Phytophthora infestans assessed as inhibition of microbial growth by microtiter plate based analysis; format: functional, organism-based
# Cladosporium cucumerinum [3] = assay: Antifungal activity against Cladosporium cucumerinum assessed as inhibition of microbial growth by microtiter plate based analysis; format: functional, organism-based
# Pyricularia oryzae = assay: Antifungal activity against Pyricularia oryzae assessed as inhibition of microbial growth; format: functional, organism-based
# Zymoseptoria tritici = assay: Antifungal activity against Zymoseptoria tritici assessed as inhibition of microbial growth by microtiter plate based analysis; format: functional, organism-based
# Botrytis cinerea = assay: Antifungal activity against Botrytis cinerea assessed as inhibition of microbial growth by microtiter plate based analysis; format: functional, organism-based
# Candida albicans [4] = assay: Antifungal activity against Candida albicans assessed as inhibition of fungal growth by bioautographic TLC method; format: functional
# Cladosporium cucumerinum [5] = assay: Antifungal activity against Cladosporium cucumerinum assessed as inhibition of microbial growth by bioautographic TLC method; format: functional
# [6] = Antiproliferative activity against human Lu1 cells assessed as cell growth inhibition; format: functional, cell-based
# [7] = Antiproliferative activity against human KBV cells assessed as cell growth inhibition; format: functional, cell-based
# LNCaP = assay: Antiproliferative activity against human LNCaP cells assessed as cell growth inhibition; format: functional, cell-based
# ZR-75-1 = assay: Antiproliferative activity against human ZR-75-1 cells assessed as cell growth inhibition; format: functional, cell-based
# Streptococcus mutans = assay: Antibacterial activity against Streptococcus mutans assessed as lethal dose; format: functional; details: read-out: LD50 (the source's name)
# Breast carcinoma cell = assay: Antiproliferative activity against human Breast cancer cell line assessed as cell growth inhibition; format: functional, cell-based
# Bacillus subtilis = assay: Antibacterial activity against Bacillus subtilis assessed as inhibition of bacterial growth; format: functional
# [8] = system: Acinetobacter calcoaceticus; assay: Antibacterial activity against Acinetobacter calcoaceticus assessed as inhibition of bacterial growth; format: functional
# Bacillus cereus = assay: Antibacterial activity against Bacillus cereus assessed as inhibition of bacterial growth; format: functional
# Priestia megaterium = assay: Antibacterial activity against Bacillus megaterium assessed as inhibition of bacterial growth; format: functional
# Cryptococcus neoformans = assay: […] activity against Cryptococcus neoformans assessed as inhibition of […]; format: functional
# Staphylococcus aureus = assay: Antibacterial activity against Staphylococcus aureus assessed as inhibition of bacterial growth; format: functional
# Pasteurella multocida = assay: Antibacterial activity against Pasteurella multocida assessed as inhibition of bacterial growth; format: functional
# Haemophilus influenzae = assay: Antibacterial activity against Haemophilus influenzae assessed as inhibition of bacterial growth; format: functional
# Neisseria meningitidis = assay: Antibacterial activity against Neisseria meningitidis assessed as inhibition of bacterial growth; format: functional
# Streptococcus pyogenes = assay: Antibacterial activity against Streptococcus pyogenes assessed as inhibition of bacterial growth; format: functional
# Streptococcus viridans = assay: Antibacterial activity against Streptococcus viridans assessed as inhibition of bacterial growth; format: functional
# Aspergillus niger = assay: Antifungal activity against Aspergillus niger assessed as inhibition of microbial growth; format: functional
# Rhizoctonia solani = assay: Antifungal activity against Rhizoctonia solani assessed as inhibition of microbial growth; format: functional
# [9] = system: Trichophyton mentagrophytes; assay: Antifungal activity against Trichophyton mentagrophytes assessed as inhibition of microbial growth; format: functional
# Candida albicans [10] = assay: Antifungal activity against Candida albicans assessed as inhibition of fungal growth by MTT assay; format: functional
# [11] = system: Human immunodeficiency virus 1; assay: Antiviral activity against HIV-1; format: functional, organism-based
# [12] = biological target: T1, Polyunsaturated fatty acid 5-lipoxygenase (Homo sapiens) (UniProt P09917); assay: Inhibition of ALOX5 (unknown origin) at 0.00001 M relative to control; details: dose 10 µM
# T1 sequence (whole entry): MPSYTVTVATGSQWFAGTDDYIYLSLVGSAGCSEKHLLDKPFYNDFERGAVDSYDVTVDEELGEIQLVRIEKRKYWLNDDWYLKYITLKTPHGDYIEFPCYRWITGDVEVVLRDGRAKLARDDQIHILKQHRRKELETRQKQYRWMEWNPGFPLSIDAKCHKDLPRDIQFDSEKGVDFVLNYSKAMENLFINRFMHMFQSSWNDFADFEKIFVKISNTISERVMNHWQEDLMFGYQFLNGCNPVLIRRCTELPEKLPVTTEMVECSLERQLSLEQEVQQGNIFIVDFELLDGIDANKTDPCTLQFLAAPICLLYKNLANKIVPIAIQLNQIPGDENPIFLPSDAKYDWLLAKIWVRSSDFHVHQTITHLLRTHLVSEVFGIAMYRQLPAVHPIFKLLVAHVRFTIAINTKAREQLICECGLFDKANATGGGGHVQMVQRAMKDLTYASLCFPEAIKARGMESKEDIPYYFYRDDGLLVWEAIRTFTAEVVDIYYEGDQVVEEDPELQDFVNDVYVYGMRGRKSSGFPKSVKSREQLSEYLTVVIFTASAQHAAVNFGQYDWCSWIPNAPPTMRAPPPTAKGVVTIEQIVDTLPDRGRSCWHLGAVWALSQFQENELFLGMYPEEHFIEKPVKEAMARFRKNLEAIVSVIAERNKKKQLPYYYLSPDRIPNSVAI
# [13] = biological target: T1, Polyunsaturated fatty acid 5-lipoxygenase (Homo sapiens); assay: Inhibition of ALOX5 (unknown origin) at 0.000001 M relative to control; details: dose 1 µM
# [14] = biological target: T1, Polyunsaturated fatty acid 5-lipoxygenase (Homo sapiens); assay: Inhibition of ALOX5 (unknown origin) at 0.0000001 M relative to control; details: dose 100 nM
# [15] = biological target: T1, Polyunsaturated fatty acid 5-lipoxygenase (Homo sapiens); assay: Inhibition of ALOX5 (unknown origin) at 0.00000001 M relative to control; details: dose 10 nM
# Homo sapiens [16] = organism: Homo sapiens; assay: Inhibition of LTB3 (unknown origin) at 0.00001 M relative to control; details: dose 10 µM
# Homo sapiens [17] = organism: Homo sapiens; assay: Inhibition of LTB3 (unknown origin) at 0.000001 M relative to control; details: dose 1 µM
# Homo sapiens [18] = organism: Homo sapiens; assay: Inhibition of LTB3 (unknown origin) at 0.0000001 M relative to control; details: dose 100 nM
# Homo sapiens [19] = organism: Homo sapiens; assay: Inhibition of LTB3 (unknown origin) at 0.00000001 M relative to control; details: dose 10 nM
# [20] = biological target: T1, Polyunsaturated fatty acid 5-lipoxygenase (Homo sapiens); assay: Inhibition of ALOX5 (unknown origin) assessed as reduction in 5-HETE formation
# [21] = biological target: T1, Polyunsaturated fatty acid 5-lipoxygenase (Homo sapiens); assay: Inhibition of ALOX5 (unknown origin) assessed as reduction in calmodulin level
# Cyclooxygenase = Cyclooxygenase (Homo sapiens, UniProt P35354+P23219); assay: Inhibition of COX (unknown origin); format: protein assay
# DNA polymerase beta = DNA polymerase beta (Homo sapiens, UniProt P06746); assay: Inhibition of DNA polymerase beta (unknown origin)
# [22] = Antioxidant activity assessed as DPPH radical scavenging activity; format: functional
# Rattus norvegicus = organism: Rattus norvegicus; assay: Inhibition of iron-induced lipid peroxidation in rat brain homogenate; format: functional
# [23] = biological target: Calmodulin-1 (Homo sapiens) (UniProt P0DP23); assay: Inhibition of calmodulin (unknown origin)
# [24] = system: Trypanosoma brucei brucei; assay: Antitrypanosomal activity against bloodstream Trypanosoma brucei brucei assessed as parasite growth inhibition measured after 72 hrs by alamar blue assay; format: functional, organism-based
# Plasmodium falciparum [25] = assay: Antimalarial activity against drug sensitive Plasmodium falciparum NF54 assessed as inhibition of parasite growth; format: functional, organism-based
# Plasmodium falciparum [26] = assay: Antimalarial activity against drug sensitive Plasmodium falciparum KI assessed as inhibition of parasite growth; format: functional, organism-based
# [27] = system: Trypanosoma brucei rhodesiense; assay: […] activity against drug sensitive Trypanosoma brucei rhodesiense assessed as inhibition of parasite growth; format: functional, organism-based
# Trypanosoma cruzi = assay: […] activity against drug sensitive Trypanosoma cruzi assessed as inhibition of parasite growth; format: functional, organism-based
# Leishmania donovani = assay: […] activity against drug sensitive Leishmania donovani assessed as inhibition of parasite growth; format: functional, organism-based
# [28] = Inhibition of plasmodium falciparum fabZ
# [29] = biological target: T2, Alpha glucosidase (Homo sapiens) (UniProt O43451+P10253+P14410+Q2M2H8); assay: Inhibition of alpha glucosidase (unknown origin) at 1 mM relative to control; format: protein assay
# [30] = biological target: T2, Alpha glucosidase (Homo sapiens); assay: Inhibition of alpha glucosidase (unknown origin) at 0.4 mM relative to control; format: protein assay
# Homo sapiens [31] = organism: Homo sapiens; assay: Antagonist activity at vasopressin (unknown origin); details: filed as antagonist
compound,measurement,setting,value
CC(=O)OCC1=CO[C@H](OC(C)=O)[C@@H]2[C@H]1[C@@H]1[C@H](CC[C@@]23CO3)C1(C)C,IC50,KB,0.28 µg/mL
same,IC50,P388,3 µg/mL
same,GI50,[1],1.7 µM
same,GI50,NCI-H460,4.8 µM
same,GI50,DU-145,1.4 µM
same,GI50,MCF7,6.8 µM
same,GI50,M14,3.9 µM
same,GI50,HT-29,1.9 µM
same,GI50,K562,4.8 µM
same,GI50,U-937,2.6 µM
same,GI50,HCT-116,4.7 µM
same,GI50,A549,9.4 µM
same,IC50,Caenorhabditis elegans,111 µg/mL
same,IC50,Leishmania amazonensis,7.1 µM
same,MIC,[2],14.5 µM
Cc1cc2c(cc1O)[C@H](C)CC[C@@H]2C(C)C,IC50,Phytophthora infestans,0.9 µg/mL
same,IC50,Cladosporium cucumerinum [3],11.8 µg/mL
same,IC50,Pyricularia oryzae,4.1 µg/mL
same,IC50,Zymoseptoria tritici,10 µg/mL
same,IC50,Botrytis cinerea,14.2 µg/mL
C=C1CC[C@H]2C(=C)CC[C@H]3C(=C)C(=O)O[C@@H]3[C@@H]12 [DEHYDROCOSTUSLACTONE],MIC,Candida albicans [4],5 µg/mL
same,MIC,Cladosporium cucumerinum [5],0.5 µg/mL
CC(C)=CCC[C@]1(C)CCC[C@]2(C)[C@@H](C=O)C(C=O)=CC[C@@H]12,IC50,KB,3.2 µM
same,IC50,[6],5.7 µM
same,IC50,[7],2.7 µM
same,IC50,LNCaP,5.7 µM
same,IC50,ZR-75-1,5.7 µM
same,LC50,Streptococcus mutans,8 µg/mL
Oc1cc2cc(c1O)Oc1ccc(cc1)CCc1cccc(O)c1Oc1cccc(c1)CC2 [MARCHANTIN A],IC50,KB,3.7 µM
same,IC50,MCF7,4 µg/mL and 11.5 µM
same,IC50,Breast carcinoma cell,5.5 µM
same,MIC,Bacillus subtilis,25 µg/mL
same,MIC,[8],6.25 µg/mL
same,MIC,Bacillus cereus,12.5 µg/mL
same,MIC,Priestia megaterium,25 µg/mL
same,MIC,Cryptococcus neoformans,12.5 µg/mL
same,MIC,Staphylococcus aureus,3.13 µg/mL and 0.0069 µM
same,MIC,Pasteurella multocida,4.5 µM
same,MIC,Haemophilus influenzae,72.7 µM
same,MIC,Neisseria meningitidis,72.7 µM
same,MIC,Streptococcus pyogenes,9.1 µM
same,MIC,Streptococcus viridans,18.1 µM
same,MIC,Aspergillus niger,25 µg/mL
same,MIC,Pyricularia oryzae,12.5 µg/mL
same,MIC,Rhizoctonia solani,50 µg/mL
same,MIC,[9],3.13 µg/mL
same,MID,Candida albicans [10],2.5 µg/mL
same,IC50,[11],5.3 µg/mL
same,inhibition,[12],89%
same,inhibition,[13],94%
same,inhibition,[14],45%
same,inhibition,[15],16%
same,inhibition,Homo sapiens [16],99%
same,inhibition,Homo sapiens [17],97%
same,inhibition,Homo sapiens [18],70%
same,inhibition,Homo sapiens [19],40%
same,ID50,[20],1.85 µg/mL
same,ID50,[21],1.85 µg/mL
same,IC50,Cyclooxygenase,46.4 µM
same,IC50,DNA polymerase beta,14.4 µM
same,IC50,[22],20 µg/mL
same,IC50,Rattus norvegicus,0.51 µM
same,ID50,[23],1.85 µg/mL
same,IC50,[24],0.27 µg/mL
same,IC50,Plasmodium falciparum [25],3.41 µM
same,IC50,Plasmodium falciparum [26],2.02 µM
same,IC50,[27],2.09 µM
same,IC50,Trypanosoma cruzi,14.1 µM
same,IC50,Leishmania donovani,1.59 µM
same,IC50,[28],18.2 µM
Oc1ccc2cc1Oc1ccc(cc1)CCc1cccc(O)c1Oc1cccc(c1)CC2,inhibition,[29],52.2%
same,inhibition,[30],100%
CC(C)=CCc1c(CCc2ccccc2)cc(O)c(O)c1O,ID50,[21],2 µg/mL
same,ID50,Homo sapiens [31],27 µg/mL
